Test results published in patent US6921770B2 (priority 2000, dated 2005).
Where two headings read alike, the source gives them in different places.

Tests used:
rice blast fungi = assay type: in vivo, Pyricularia grisea
Pyricularia grisea = assay type: in vivo

| Compound | Inhibiting Ratio (%) (at 250 ppm) (rice blast fungi) | also measured |
| --- | --- | --- |
| Br.CC(C)Oc1cccc(N=c2scc(CC(=O)Nc3ccc(Cl)cc3)n2C)c1 [Compound 303, 2-(3-isopropoxyphenylimino)-3-methyl-4-[N-(4-chlorophenyl)carbamoylmethyl]-1,3-thiazol-4-ine hydrobromide] | 100 | – |
| Br.CCc1ccc(N=c2scc(CC(=O)Nc3ccc(Cl)cc3)n2C)cc1 [Compound 304, 2-(4-ethylphenylimino)-3-methyl-4-[N-(4-chlorophenyl)carbamoylmethyl]-1,3-thiazol-4-ine hydrobromide] | 100 | – |
| Br.Cn1c(CC(=O)Nc2ccc(Cl)cc2)csc1=Nc1ccccc1 [Compound 305, 2-phenylimino-3-methyl-4-[N-(4-chlorophenyl)carbamoylmethyl]-1,3-thiazol-4-ine hydrobromide] | 100 | – |
| Br.COc1ccc(NC(=O)Cc2csc(=Nc3ccccc3)n2C)cc1 [Compound 306, 2-phenylimino-3-methyl-4-[N-(4-methoxyphenyl)carbamoylmethyl]-1,3-thiazol-4-ine hydrobromide] | 93 | – |
| Br.COc1ccc(N=c2scc(CC(=O)Nc3ccc(OC)cc3)n2C)cc1 [Compound 307, 2-(4-methoxyphenylimino)-3-methyl-4-[N-(4-methoxyphenyl)carbamoylmethyl]-1,3-thiazol-4-ine hydrobromide] | 100 | – |
| Br.COc1ccc(N=c2scc(CC(=O)Nc3ccc(Cl)cc3)n2C)cc1 [Compound 308, 2-(4-methoxyphenylimino)-3-methyl-4-[N-(4-chlorophenyl)carbamoylmethyl]-1,3-thiazol-4-ine hydrobromide] | 99 | – |
| Br.COc1ccc(NC(=O)Cc2csc(=Nc3ccc(C)cc3)n2C)cc1 [Compound 309, 2-(4-methylphenylimino)-3-methyl-4-[N-(4-methoxyphenyl)carbamoylmethyl]-1,3-thiazol-4-ine hydrobromide] | 100 | – |
| Br.Cc1ccccc1N=c1scc(CC(=O)Nc2ccc(Cl)cc2)n1C [Compound 310, 2-(2-methylphenylimino)-3-methyl-4-[N-(4-chlorophenyl)carbamoylmethyl]1,3-thiazol-4-ine hydrobromide] | 100 | – |
| Br.COc1ccc(NC(=O)Cc2csc(=Nc3ccccc3OC)n2C)cc1 [Compound 311, 2-(2-methoxyphenylimino)-3-methyl-4-[N-(4-methoxyphenyl)carbamoylmethyl]-1,3-thiazol-4-ine hydrobromide] | 95 | – |
| Br.COc1ccc(NC(=O)Cc2csc(=Nc3ccccc3C)n2C)cc1 [Compound 312, 2-(2-methylphenylimino)-3-methyl-4-[N-(4-methoxyphenyl)carbamoylmethyl]-1,3-thiazol-4-ine hydrobromide] | 25 | – |
| Br.COc1ccc(NC(=O)Cc2csc(=Nc3ccc(OC(C)C)cc3)n2C)cc1 [Compound 313, 2-(4-isopropoxyphenylimino)-3-methyl-4-[N-(4-methoxyphenyl)carbamoylmethyl]-1,3-thiazol-4-ine hydrobromide] | 100 | – |
| Br.CC(C)Oc1ccc(N=c2scc(CC(=O)Nc3ccc(Cl)cc3)n2C)cc1 [Compound 314, 2-(4-isopropoxyphenylimino)-3-methyl-4-[N-(4-chlorophenyl)carbamoylmethyl]-1,3-thiazol-4-ine hydrobromide] | 100 | – |
| Br.COc1ccc(NC(=O)Cc2csc(=Nc3ccc(F)cc3)n2C)cc1 [Compound 315, 2-(4-fluorophenylimino)-3-methyl-4-[N-(4-methoxyphenyl)carbamoylmethyl]-1,3-thiazol-4-ine hydrobromide] | 97 | – |
| Br.Cn1c(CC(=O)Nc2ccc(Cl)cc2)csc1=Nc1ccc(F)cc1 [Compound 316, 2-(4-fluorophenylimino)-3-methyl-4-[N-(4-chlorophenyl)carbamoylmethyl]-1,3-thiazol-4-ine hydrobromide] | 100 | – |
| Br.Cn1c(CC(=O)Nc2ccc(Cl)cc2)csc1=Nc1ccc(Br)cc1 [Compound 317, 2-(4-bromophenylimino)-3-methyl-4-[N-(4-chlorophenyl)carbamoylmethyl]-1,3-thiazol-4-ine hydrobromide] | 100 | – |
| Br.COc1ccc(NC(=O)Cc2csc(=Nc3ccc(Br)cc3)n2C)cc1 [Compound 318, 2-(4-bromophenylimino)-3-methyl-4-[N-(4-methoxyphenyl)carbamoylmethyl]-1,3-thiazol-4-ine hydrobromide] | 100 | – |
| Br.Cn1c(CC(=O)Nc2ccc(Cl)cc2)csc1=Nc1ccc(Oc2ccccc2)cc1 [Compound 319, 2-(4-phenoxyphenylimino)-3-methyl-4-[N-(4-chlorophenyl)carbamoylmethyl]-1,3-thiazol-4-ine hydrobromide] | 100 | – |

| Compound | Inhibiting Ratio (%) (at 250 ppm) (rice blast fungi) | also measured |
| --- | --- | --- |
| Br.COc1ccc(NC(=O)Cc2csc(=Nc3ccc(Oc4ccccc4)cc3)n2C)cc1 [Compound 320, 2-(4-phenoxyphenylimino)-3-methyl-4-[N-(4-methoxyphenyl)carbamoylmethyl]-1,3-thiazol-4-ine hydrobromide] | 100 | – |
| Br.Cc1cc(C)c(N=c2scc(CC(=O)Nc3ccccc3)n2C)c(C)c1 [Compound 321, 2-(2,4,6-trimethylphenylimino)-3-methyl-4-N-phenylcarbamoyl methyl-1,3-thiazol-4-ine hydrobromide] | 97 | – |
| Br.Cc1ccccc1NC(=O)Cc1csc(=Nc2ccc(C#N)cc2)n1C [Compound 324, 2-(4-cyanophenylimino)-3-methyl-4-[N-(2-methylphenyl)carbamoylmethyl]1,3-thiazol-4-ine hydrobromide] | 90 | – |
| Br.Cn1c(CC(=O)Nc2ccccc2)csc1=Nc1ccc(Cl)c(Cl)c1 [Compound 325, 2-(3,4-dichlorophenylimino)-3-methyl-4-N-phenylcarbamoylmethyl-1,3-thiazol-4-ine hydrobromide] | 97 | – |
| Br.COc1ccc(NC(=O)Cc2csc(=Nc3ccc(C(C)(C)C)cc3)n2C)cc1 [Compound 326, 2-(4-butyl(t-)phenylimino)-3-methyl-4-[N-(4-methoxyphenyl)carbamoylmethyl]-1,3-thiazol-4-ine hydrobromide] | 97 | – |
| Br.COc1ccccc1NC(=O)Cc1csc(=Nc2ccc(C(C)(C)C)cc2)n1C [Compound 327, 2-(4-butyl(t-)phenylimino)-3-methyl-4-[N-(2-methoxyphenyl)carbamoylmethyl]-1,3-thiazol-4-ine hydrobromide] | 62 | – |
| Br.COc1ccc(NC(=O)Cc2csc(=Nc3cccc(C)c3)n2C)cc1 [Compound 328, 2-(3-methylphenylimino)-3-methyl-4-[N-(4-methoxyphenyl)carbamoylmethyl]-1,3-thiazol-4-ine hydrobromide] | 97 | – |
| Cn1c(CC(=O)Nc2ccc(Cl)cc2)csc1=Nc1ccc(C#N)cc1 [Compound 329, 2-(4-cyanophenylimino)-3-methyl-4-[N-(4-chlorophenyl)carbamoylmethyl]-1,3-thiazol-4-ine] | 100 | – |
| COc1ccc(NC(=O)Cc2csc(=Nc3ccc(C#N)cc3)n2C)cc1 [Compound 330, 2-(4-cyanophenylimino)-3-methyl-4-[N-(4-methoxyphenyl)carbamoylmethyl]-1,3-thiazol-4-ine] | 100 | – |
| Cn1c(CC(=O)Nc2ccccc2)csc1=Nc1ccc(F)cc1F [Compound 331, 2-(2,4-difluorophenylimino)-3-methyl-4-[N-phenylcarbamoylmethyl]-1,3-thiazol-4-ine] | 96 | – |
| Cc1ccc(NC(=O)Cc2csc(=Nc3ccc(F)cc3F)n2C)cc1 [Compound 332, 2-(2,4-difluorophenylimino)-3-methyl-4-[N-(4-methylphenyl)carbamoylmethyl]-1,3-thiazol-4-ine] | 100 | – |
| Cc1cccc(NC(=O)Cc2csc(=Nc3cc(OC(C)C)c(Cl)cc3F)n2C)c1 [Compound 333, 2-(2-fluoro-4-chloro-5-isopropoxyphenylimino)-3-methyl-4-[N-(3-methylphenyl)carbamoylmethyl]-1,3-thiazol-4-ine] | 98 | – |
| CCCCc1ccc(N=c2scc(CC(=O)Nc3ccc(OC)cc3)n2C)cc1 [Compound 334, 2-[4-(n-butyl)phenylimino]-3-methyl-4-[N-(4-methoxyphenyl)carbamoylmethyl]-1,3-thiazol-4-ine] | 96 | – |
| CCc1ccc(NC(=O)Cc2csc(=Nc3ccc(C#N)cc3)n2C)cc1.Cl [Compound 341, 2-(4-cyanophenylimino)-3-methyl-4-[N-(4-ethylphenyl)carbamoylmethyl]-1,3-thiazol-4-ine hydrochloride] | – | controlling effect on rice blast (Pyricularia grisea; 2 ppm, hydrochloride): 96%; controlling effect on rice blast (Pyricularia grisea; 10 ppm, hydrochloride): 98%; controlling effect on rice blast (Pyricularia grisea; 100 ppm, hydrochloride): 93% |
| Cc1ccc(NC(=O)Cc2csc(=Nc3cc(OC(C)C)c(Cl)cc3F)n2C)cc1.Cl [Compound 342] | – | controlling effect on rice blast (Pyricularia grisea; 2 ppm): 90%; controlling effect on rice blast (Pyricularia grisea; 10 ppm): 98%; controlling effect on rice blast (Pyricularia grisea; 100 ppm): 92% |
| COc1ccc(NC(=O)Cc2csc(=Nc3ccc(C(F)(F)F)cc3)n2C)cc1F.Cl [Compound 343, 2-(4-trifluoromethylphenylimino)-3-methyl-4-[N-(3-fluoro-4-methoxyphenyl)carbamoylmethyl]-1,3-thiazol-4-ine hydrochloride] | – | controlling effect on rice blast (Pyricularia grisea; 2 ppm): 90%; controlling effect on rice blast (Pyricularia grisea; 10 ppm): 94%; controlling effect on rice blast (Pyricularia grisea; 100 ppm): 98% |
| COc1ccc(NC(=O)Cc2csc(=Nc3ccc(C#N)cc3)n2C)cc1F.Cl [Compound 344, 2-(4-cyanophenylimino)-3-methyl-4-[N-(3-fluoro-4-methoxyphenyl)carbamoylmethyl]-1,3-thiazol-4-ine hydrochloride] | – | controlling effect on rice blast (Pyricularia grisea; 2 ppm): 83%; controlling effect on rice blast (Pyricularia grisea; 10 ppm): 97%; controlling effect on rice blast (Pyricularia grisea; 100 ppm): 98% |
